Columns and labels:
[1] = system: E. coli reporter strain panel
Description: The AP activity was measured electrochemically at potential […] by making use of pAPP in a point assay after induction period. The determined SOS-induction factors for each concentration level are plotted against each other.
To increase the capabilities of the reporter cells as genotoxicity bioreporters, a series of knock-out mutations was introduced to the E. coli RFM443's genome. The genes that were selected to be deleted are genes affiliated with DNA repair mechanisms (Nucleotide Exicision Repair, uvrA; DNA Pol V, umuD) and a structural gene that can influence cell permeability (lipopolysaccharide, rfaE). […] The deletion mutations in uvrA and umuD were transferred by P1 transduction. […] From each gene deletion experiment, eight Km^R colonies were chosen and checked for the correct mutation structure by PCR using a combination of locus- and kanamycin-specific primers (Table 1). PCR fragments with the right size of both junctions were sent to sequencing. Sequences were indentified using BLAST program operating on the default options querying the NCBI nucleotide collection database. The construction of double or triple mutants was obtained by the elimination of the resistance using a helper plasmid expressing the FLP recombinase, which acts on the FRT (FLP recognition target) sites flanking the resistance gene. Using the methods described above, a set of mutated reporter strains was constructed as detailed in Table 2. Strains dedicated to harbor the phoA reporter gene were also engineered to contain a deletion in the chromosomal phoA gene to eliminate the possibility of native PhoA activity.

[2] = system: Salmonella typhimurium TA1535 pSK1002 cells; assay: Genotoxicity bio-detection of IQ with Salmonella typhimurium umuC'-'lacZ reporter, amperometry on micro-chip; assay type: cell-based
Description: Salmonella typhimurium TA1535 pSK1002 [Y. Oda et al., Mutat. Res. 147 (1985) 219] cells were used for the IQ bio-detection. The construction of the pSK1002 plasmid was reported in H. Shinagawa et al. Gene. 23 (1983) 167, which is hereby incorporated by reference in its entirety. The exposition of bacteria was done according to Reifferscheid et al. [Reifferscheid et al., Mutat. Res. 253 (1991) 215]. An over night culture of the bacteria was refreshed in 20 ml TGA-medium (1:10 dilution of bacteria) and grown for further 2 h (37° C., 150 rpm). Prior to exposition the optical density (λ=595 nm) of the bacterial culture was adjusted to 0.44 by dilution with TGA medium. […] The OD595 of the exposed mixture was measured after an incubation time of 2 h at 37° C. and 900 rpm in shaking conditions.
The activity of the reporter enzyme β-galactosidase in the induced bacteria was measured by making use of the substrate para-Aminophenyl β-D-galactopyranoside (pAPG, 0.5 mM final concentration, Sigma). Shortly after the addition of pAPG, aliquots of 3 μl were introduced into the electrochemical microchambers and a constant potential of 300 mV vs. Ag/AgCl was applied on the electrochemical chamber in order to quantify the enzymatically generated product pAP. The setup was connected in such a way that the output current was monitored (i.e. amperometry measurement).

[3] = system: Escherichia coli RFM443/pBR2TTS cells harboring a sulA::phoA fusion; assay type: cell-based
Description: Escherichia coli RFM443/pBR2TTS cells harboring a sulA::phoA fusion were grown overnight in MOPS growth medium containing 0.1 mg/ml ampicillin with shaking conditions at 37° C. The overnight culture was diluted ×1/100, regrown to an optical density of 0.2 (600 nm). Finally NA (FW 254.22, Sigma) was added to a final concentration of 10 μg/ml. Following further incubation at various times of 0, 60, 90, or 120 minutes under similar conditions, aliquots of 3 μl were introduced into the electrochemical microchambers. Shortly after applying a constant potential of 300 mV vs. Ag/AgCl in the electrochemical chamber, the enzymatic substrate para-Aminophenyl phosphate (pAPP, MW 211.09, diagnoSwiss) was added reaching a concentration of 0.8 mg/ml.
Control samples were prepared with the addition of growth medium instead of NA or pAPP to the incubation stage in order to verify the influence of NA on the induction of the bacteria and pAPP on the generated bio-electrochemical response.

SMILES: OO [H2O2, hydrogen peroxide]
- response of the reporter to model genotoxicants ([1]; AP activity measured electrochemically at potential 0.3 mV with pAPP, point assay after induction, FIG. 14): responsive
- response of the uvrA mutant reporter strain ([1]; uvrA mutant, FIG. 14): elevated response

SMILES: Cn1c(N)nc2c3cccnc3ccc21 [IQ, 2-Amino-3-methylimidazo[4,5-f]quinoline]
- dependence of the differential slope of the electrochemical current on concentration ([2]; IQ 5, 1.25, 0.31 μM activated with S9-fraction, 2 h, pAPG 0.5 mM, 300 mV vs. Ag/AgCl, FIG. 11A): more rapidly increasing electrochemical current characteristics
- detection by the prototype biosensor ([2]; microfluidic whole cell prototype biosensor, genotoxic material): successfully detected
- response of the reporter strain mutated in uvrA and rfaE genes ([1]; following metabolic activation with lyophilized liver S9 fraction, compared with umu-test reporter strain): responded

SMILES: CCn1cc(C(=O)O)c(=O)c2ccc(C)nc21 [NA, Nalidixic acid]
- response of the ΔrfaE reporter strains ([1]; ΔrfaE mutants, FIG. 14): respond to lower concentrations
- chrono-amperometric response of E. coli bacteria in the presence of toxicant after pAPP was added ([3]; NA 10 μg/ml, 1 hr incubation, pAPP 0.8 mg/ml, 300 mV vs. Ag/AgCl, FIG. 10A): increasing electrochemical current
- electrochemical current of induced bacteria compared with non-induced bacteria, pAPP added to both ([3]; NA 10 μg/ml, 1 hr incubation, pAPP 0.8 mg/ml, FIG. 10A): more rapidly increasing electrochemical current than non-induced bacteria
- effect of induction time on the slope of the detected electrochemical current ([3]; NA 10 μg/ml, induction 0, 60, 90 or 120 minutes, FIGS. 10B-C): For longer induction times the current increased more rapidly
- detection by the prototype biosensor ([3]; microfluidic whole cell prototype biosensor, model toxicant): successfully detected
